Source: patent US9119884B2, “LLP2A-bisphosphonate conjugates for osteoporosis treatment” (The Regents of the University of California, priority 2010, dated 2015)
Entries after “also recorded” stand apart in the source; their conditions may differ.

Key:
C57BL/6 mice [1] = test: Guiding GFP-labeled mouse MSCs to bone; assay type: in vivo; details: for osteocalcin levels: 0.9 nmol/mouse I.P. one hour after GFP-MSC I.V.
Description: LLP2A-Ale or LLP2A-Ale (1) were dissolved in 0.9% normal saline and injected I.P. to the mice one hour after MSC at a final solution of 0.9 nmol/mouse. Mice were sacrificed either at 3 days or 3 weeks. Osteocalcin, a bone formation marker, was measured at both 3 days and 3 weeks post-treatments. The lumbar vertebral bodies from the 3-day treatment groups were frozen and sectioned with cryostat. The sections were then stained with anti-GFP antibody. The transplanted MSCs were stained in brown.

C57BL/6 mice [2] = test: Age-related trabecular bone loss after peak bone acquisition; assay type: in vivo, mouse
Text: FIGS. 18A and B show LLP2A-Ale increases bone formation parameters at the trabecular DF (P<0.05) in C57BL/6 mice.

129SvJ mice = assay type: in vivo, mouse
MSC = MSC osteoblast maturation, function, migration and lineage potentials; assay type: cell-based
[3] = tested on: 10-week-old ovariectomized (OVX) mice; test: Ovariectomized (OVX) mouse model; assay type: in vivo
Text: FIG. 21 depicts histomorphometric analyses of the 5th lumbar vertebral bodies after LLP2A-Ale treatment of 10-week-old ovariectomized (OVX) mice, showing increases in osteoblast numbers, activities and bone formation rate/bone surface (BFR/BS) post-treatment. Analyses included trabecular bone area (%), osteoblast surface (Ob/BS), mineralizing surface (MS/BS) activities and BFR/BS (P<0.05).
Representative fluorescent images from the trabecular bone at the 5th LVB (Top panel: white arrowheads illustrate osteoblasts; Bottom panel: yellow arrows illustrate double labeled trabecular bone surfaces).
FIG. 23 depicts histomorphometry analyses of the right mid-femurs included bone formation at the endosteal (Ec) or periosteal (Ps.) bone surfaces, and cortical bone thickness of 10-week-old ovariectomized (OVX) mice. […] Three-point bending was performed on left femurs to obtain maximum stress of the femurs.
Short yellow arrows illustrated double labeled endocortical bone surfaces. (a, p<0.05 versus Sham; b, P<0.05 vs. OVX+PBS, c, P<0.05 vs. OVX+LLP2A; d, P<0.05 vs. OVX+Ale. Data are represented as Mean±SD).

SMILES: Cc1ccccc1NC(=O)Nc1ccc(CC(=O)N[C@@H](CCCCNC(=O)/C=C/c2cccnc2)C(=O)N[C@@H](CCCC(=O)O)C(=O)NC2(C(=O)NCCOCCOCCNC(=O)CCC(=O)NCCOCCOCCNC(=O)CCC(=O)N[C@@H](CCCCNC(=O)[C@H](N)CSC3CC(=O)N(CC4CCC(C(=O)NCCCC(O)(P(=O)(O)O)P(=O)(O)O)CC4)C3=O)C(N)=O)CCCCC2)cc1 (stereo partly shown) [LLP2A-Ale, LLP2A-Alendronate]
- location of transplanted MSCs (anti-GFP staining) (C57BL/6 mice [1]; lumbar vertebral bodies, three days): observed within bone marrow and adjacent to the trabecular bone surfaces
- osteocalcin levels (C57BL/6 mice [1]; three days): significantly increased
- osteocalcin levels (C57BL/6 mice [1]; three weeks): significantly increased
- bone formation parameters at the trabecular DF (C57BL/6 mice [2]; P<0.05): increases
- age-related trabecular bone (loss) after peak bone acquisition (C57BL/6 mice [2]; mouse, in vivo): prevents
- bone formation parameters at trabecular bone surfaces in the lumbar vertebral bodies (LVB) (C57BL/6 mice [2]; mouse, in vivo): increases
- dose-response at the cortical bone compartment (129SvJ mice; 10 ng vs 250 ng/mouse): no dose-responses
- mineral apposition rate (129SvJ mice; distal femur metaphysis): significant increases
- osteoblast surface (129SvJ mice; distal femur metaphysis): significant increases; also recorded: increased
- surface-based bone formation rate (129SvJ mice; distal femur metaphysis): significant increases
- trabecular thickness (129SvJ mice; distal femur microCT, four weeks, two dose levels, vs PBS): increased
- increase in cancellous bone mass from baseline (129SvJ mice; distal femur microCT, four weeks, LLP2A-Ale at higher dose level (250 ng)): ~20%
- bridges between adjacent trabeculae (129SvJ mice; mouse, in vivo): formed bridges between adjacent trabeculae
- early osteoblast maturation (P1NP levels) (129SvJ mice; serum): did not change
- osteoblast function (osteocalcin) (129SvJ mice; serum): increased
- cancellous bone mass (129SvJ mice; through increasing the thickness of the trabeculae): increases
- proliferating cell populations (BrdU) (129SvJ mice; two days after i.v. injection, lumbar vertebral sections): increased these proliferating cell populations adjacent to bone surface; also recorded: increases
- cancellous bone formation (129SvJ mice; young normal mice): increases
- cortical bone formation (129SvJ mice; young normal mice): increases
- MSC chondrogenic or adipogenic potentials (MSC): without affecting
- MSC osteoblast maturation, function and migration (MSC): increases
- osteoblast numbers, activities and bone formation rate/bone surface (BFR/BS) ([3]; 5th lumbar vertebral bodies): increases
- maximum stress ([3]; femur three-point bending, single IV injection of conjugate or four weeks of PTH): not significantly altered
- endocortical bone formation ([3]; mid-femur, vs OVX): increases
- cortical bone thickness ([3]; mid-femur, single IV injection of conjugate or four weeks of PTH): not significantly altered
